Results from ChEMBL document CHEMBL3507680, “University of Dundee, Gates Library screen for HepG2 cell viability”.

Experiment: Human HepG2 cell viability assay in 384 well format
Type: toxicity, cell-based
Design: dose 125 nL, time 70.5 hour; concentration not given beside the values
Details: HepG2 cells, read-out: Inhibition

| Compound | cytotoxicity at 70.5 h |
| --- | --- |
| CC(NC(=O)N1CCN(c2nccs2)CC1)c1nncn1C (stereo not drawn) | -7.23% |
| O=C(NCCc1coc(-c2ccccc2)n1)NC1CC1 | 20.2% |
| Cc1cnn(CC2CN(CC(=O)N(C)Cc3cnn(C)c3)CCO2)c1 (stereo not drawn) | -7.34% |
| O=C(NCCc1coc(-c2ccc(F)cc2)n1)NC1CC1 | -3.96% |
| Cc1ccc(-c2nc(CCNC(=O)NC3CCC(O)CC3)co2)cc1 (stereo not drawn) | 0.284% |
| COc1ccc(C(=O)N2CCCS2(=O)=O)cc1 | -5.25% |
| Cc1ccc(-c2nc(CCNC(=O)NCC(C)(C)C(N)=O)co2)cc1 | -0.0567% |
| CCc1nc(C2CCCN2C(=O)c2cc[nH]n2)no1 (stereo not drawn) | 3.06% |
| COc1ccc(-c2noc(CN3CCCC3Cn3cccn3)n2)cc1 (stereo not drawn) | -1.01% |
| Cc1cccc(-c2noc(CN3CCCCC3Cn3cncn3)n2)c1 (stereo not drawn) | -6.45% |
| Cc1nnc(CN(C)C2CCN(Cc3nc4ccccc4n3C)C2)o1 (stereo not drawn) | -1.55% |
| CCc1nc(C2CCCN2C(=O)c2cc(Cl)c[nH]2)no1 (stereo not drawn) | -2.89% |
| Cc1nc(CC(=O)N2CCCC2Cn2cccn2)cs1 (stereo not drawn) | -5% |
| Cc1cc(C2CCCN(C(=O)COc3cc(C)on3)C2)n[nH]1 (stereo not drawn) | -3.29% |
| Cc1cc(NC(=O)CN2CCCC2c2noc(C)n2)n(C)n1 (stereo not drawn) | -5.38% |
| CCc1nc(CN2CCCN(Cc3nnc(C4CC4)o3)CC2)no1 | -5.98% |
| Cc1nc(C)n(CC2CCCN(CCOc3ccccc3F)C2)n1 (stereo not drawn) | 28.7% |
| CCc1nccn1C1CCCN(C(=O)c2c(C)nsc2NC)C1 (stereo not drawn) | -7.79% |
| Cn1nc2c(cc1=O)CN(Cc1nc(-c3ccsc3)no1)CC2 | -19.7% |
| Cc1ccccc1-c1noc(CN2CCc3nn(C)c(=O)cc3C2)n1 | -11.6% |
| CCc1nc(C2CCCN2CC(=O)Nc2cc(C)nn2C)no1 (stereo not drawn) | -15.1% |
| CC(Cn1cccn1)NC(=O)c1cccs1 (stereo not drawn) | -9.89% |
| O=C(NCCCN1CCc2ccccc2C1)c1ccccc1Cl | -7.27% |
| COc1ccc(CNc2cnn(C)c(=O)c2Cl)cc1 | 1.82% |

| Compound | cytotoxicity at 70.5 h |
| --- | --- |
| Cn1ccc(C(=O)NCc2ccc(N3CCOCC3)nc2)cc1=O | -12% |
| Cn1cc(C(=O)NCc2ccc(N3CCCC3)nc2)ccc1=O | -8.81% |
| CCCC(C#N)NC(=O)c1cc(Br)c2c(c1)OCCO2 (stereo not drawn) | -11.4% |
| CC(Cc1cccs1)NC(=O)CCn1cccn1 (stereo not drawn) | -0.682% |
| OC(CNCCn1cccn1)c1ccc(C(F)(F)F)cc1 (stereo not drawn) | -4.94% |
| OC(CNCCn1cccn1)c1cccc(Br)c1 (stereo not drawn) | -8.75% |
| COCCC(C)NC(=O)c1cc(Br)c2c(c1)OCCO2 (stereo not drawn) | -10.3% |
| CCC(C)NC(=O)c1cc(Br)c2c(c1)OCCO2 (stereo not drawn) | -1.67% |
| Cc1cc(OCC(=O)N2CCCC(c3nc(C)c(C)s3)C2)no1 (stereo not drawn) | 11.5% |
| Cc1cc(OCC(=O)N2CCCC(c3nccs3)C2)no1 (stereo not drawn) | -2.96% |
| Cc1cn2c(n1)CCC(NC(=O)c1oc(Br)cc1C)C2 (stereo not drawn) | -11.5% |
| CNc1snc(C)c1C(=O)N1CCCC(n2nc(C)nc2C)C1 (stereo not drawn) | -10.6% |
| Cc1cn2c(n1)CCC(NC(=O)c1[nH]ncc1Br)C2 (stereo not drawn) | -9.45% |
| Cc1nc(C2CCCN2CC(=O)Nc2cc(C(C)(C)C)nn2C)no1 (stereo not drawn) | -6.05% |
| Cn1ncc(NCc2cccc(OCC(F)(F)F)c2)c(Cl)c1=O | 18.3% |
| CCn1cnnc1CNC(=O)N1CCC(C)CC1 | 16.5% |
| O=C(CN1CCOC(CNc2cccnn2)C1)NCc1ccccn1 (stereo not drawn) | 19% |
| COc1c(C2CCCN2Cc2noc(C(C)C)n2)c(C)nn1C (stereo not drawn) | 28.5% |
| Cc1cnn(CC2CCCN2Cc2noc(-c3ccccc3)n2)c1 (stereo not drawn) | -9.63% |
| Cc1cnn(CC2CN(CCc3ccccn3)CCO2)c1 (stereo not drawn) | -7.7% |
| CCc1nc(CN2CCCC2c2c(C)nn(C)c2OC)no1 (stereo not drawn) | -3.81% |
| NC(=O)C1CCCN(c2ccc(CNC(=O)c3cc[nH]n3)cc2)C1 (stereo not drawn) | 5.04% |
| Cc1cnn(CC2CN(CC(=O)Nc3ccncc3)CCO2)c1 (stereo not drawn) | -5.95% |
| CC(=O)NCCNC(=O)CN1CCOC(Cn2cc(C)cn2)C1 (stereo not drawn) | -5.91% |

| Compound | cytotoxicity at 70.5 h |
| --- | --- |
| O=C(c1ccc2c(c1)OCCO2)N1CCCC(n2ccnc2)C1 (stereo not drawn) | -4.86% |
| Cc1ccc(-c2nc(CN3CCCCC3Cn3cncn3)no2)cc1 (stereo not drawn) | -7.36% |
| Cc1nn(C)c(C)c1C1CCCN1C(=O)c1ccc(N(C)C)nn1 (stereo not drawn) | -6.36% |
| Cc1nc(C(=O)N2CCCC2c2c(C)nn(C)c2Cl)ccc1C#N (stereo not drawn) | -4.22% |
| Cc1nn(C)c(C)c1C1CCCN1C(=O)c1cnccn1 (stereo not drawn) | -2.94% |
| Cc1cc(C)n(CC2CCCN2Cc2nc(N)c3ccccc3n2)n1 (stereo not drawn) | -3.06% |
| Cc1cnn(CC2CCCN2Cc2noc(C3CC3)n2)c1 (stereo not drawn) | 0.359% |
| COc1c(C2CCCN2Cc2nc(C)c(C)o2)c(C)nn1C (stereo not drawn) | -7.8% |
| Cc1cnn(CCNCc2ccccc2OCc2ccncc2)c1 | 3.09% |
| COc1c(CNC(c2ccc(F)cc2)c2nccn2C)c(C)nn1C (stereo not drawn) | 45.1% |
| CN(C)C(=O)CN1CCN(C(=O)Cc2csc(-c3ncccn3)n2)CC1 | -4.31% |
| CC(C(=O)N1CCCN(c2ccc(C#N)cc2)CC1)n1ccnc1 (stereo not drawn) | -1.24% |
| CCN(Cc1ccc2c(c1)OCO2)C(=O)c1ccc(C)[nH]c1=O | 35.4% |
| NC(=O)CC1CCN(C(=O)CCOc2ccc(Cl)cc2)CC1 | -1.2% |
| COc1c(CNCc2ccc(N(C)C)nc2)c(C(C)C)nn1C | 1.68% |
| Cc1nc2ccccc2c(=O)n1CCC(=O)N1CCSCC1 | -4.52% |
| COCC(=O)NC(C)Cc1cccc(Br)c1 (stereo not drawn) | 33.7% |
| Cc1nn(C)c(N(C)C)c1CNC1CCOc2c(F)cccc21 (stereo not drawn) | 13.3% |
| COC1CCN(C(=O)Cc2csc(-c3ncccn3)n2)CC1 | -3.38% |
| Cc1cccc(C(=O)NC(CN2CCCC2=O)c2ccccc2)n1 (stereo not drawn) | 0.515% |
| CCn1c(CN2CCN(CC(N)=O)CC2)nc2c(F)cccc21 | -0.996% |
| CCNc1cc2c(nn1)CCN(C(=O)c1ccc3cc[nH]c3c1)C2 | 2.8% |
| COc1c(CNC(c2nccn2C)C(C)C)c(C)nn1C (stereo not drawn) | -6.48% |
| CS(=O)(=O)N1CCCCCC1C1CCN(c2ncccc2C#N)CC1 (stereo not drawn) | -0.285% |

| Compound | cytotoxicity at 70.5 h |
| --- | --- |
| Cn1cc(CNC2CCCN(Cc3noc(C4CC4)n3)C2)cn1 (stereo not drawn) | 3.36% |
| CC(O)CN1CCN(C(=O)c2ccc(Br)o2)CC1 (stereo not drawn) | -19.8% |
| COc1cccc(COCC(O)CN2CC(n3cccn3)C2)c1 (stereo not drawn) | -6.05% |
| N#CC1(C(=O)N2CCN(c3nccs3)CC2)CCCCC1 | -10.1% |
| CCOc1ccccc1OC1CCN(C(=O)c2ccc(=O)[nH]n2)CC1 | -7.24% |
| N#Cc1ccnc(N2CCN(C(=O)Cc3ccc4c(c3)CCO4)CC2)c1 | -7.76% |
| Cc1nn(C)c(N2CCOCC2)c1CNCc1nccs1 | -6.17% |
| CC(C)Oc1ncccc1CNC(=O)N1CCC(C(N)=O)C1 (stereo not drawn) | -12.5% |
| O=C(c1ccc(-n2ccnc2)nc1)N1CCCC(n2cccn2)C1 (stereo not drawn) | 1.69% |
| Cc1nnc2n1CCN(Cc1ncc(-c3ccc(Cl)cc3)o1)C2 | -11% |
| c1cnn(C2CN(Cc3nc(-c4ccsc4)no3)C2)c1 | -11.9% |
| COc1ccc(-c2cnc(CN3CCn4c(C)nnc4C3)o2)cc1 | 22.7% |
| Cc1cc(C)c(CNC(=O)NCCOc2ccc3c(c2)CCC3)c(=O)[nH]1 | -9.44% |
| CC(C(=O)NCc1ccnc(N2CCN(C)CC2)c1)n1cccn1 (stereo not drawn) | -5.91% |
| Cc1cc(C2CCCN2C(=O)c2cc3c(s2)CCC3)on1 (stereo not drawn) | -16.3% |
| c1cnc(-c2nc(CNCCn3cccn3)cs2)nc1 | 8.63% |
| c1ccc(-c2noc(CN3CCOC(Cn4cccn4)C3)n2)nc1 (stereo not drawn) | -8.08% |
| CCc1nc(CN2CCCC(NCc3nc4cccnc4[nH]3)C2)no1 (stereo not drawn) | 18.9% |
| CNS(=O)(=O)Cc1ccc(CNC(=O)Nc2cccnc2)cc1 | 13.3% |
| O=C(Nc1ccccn1)C1=NN(c2ccccc2)C(=O)CN1 | 45.9% |
| CC(=O)N1CCN(C(=O)CCCc2nc(C(C)C)no2)CC1 | 11.7% |
| CC(C(=O)NCCOc1cccc(Cl)c1)n1cncn1 (stereo not drawn) | -9.41% |
| CC(Cn1ccnc1)NC(=O)C1(c2ccc3c(c2)OCCO3)CCCC1 (stereo not drawn) | 14.5% |
| CC(Cn1cccn1)NC(=O)NCCc1cnn(C)c1 (stereo not drawn) | -16.3% |

| Compound | cytotoxicity at 70.5 h |
| --- | --- |
| CNS(=O)(=O)Cc1ccc(CNC(=O)Nc2cn[nH]c2)cc1 | -11.3% |
| Cc1ccc(S(=O)(=O)Nc2ccc(=O)n(C)c2)cc1 | -13.1% |
| COc1cccc(C2CCCN2Cc2nc3c(cnn3C)c(=O)[nH]2)c1 (stereo not drawn) | -1.55% |
| Cc1ccc(C2CCCN2Cc2nc3c(cnn3C)c(=O)[nH]2)cc1C (stereo not drawn) | -15.6% |
| CC(Cn1ccnc1)NC(=O)C1(c2ccc(F)cc2)CC1 (stereo not drawn) | -8.11% |
| COc1ccc2c(c1)CN(Cc1nc3c(cnn3C)c(=O)[nH]1)CC2 | 45.5% |
| O=C(CN1CCC(N2CCNC2=O)CC1)NCC(F)(F)F | -11.3% |
| COC(=O)c1ccc(N2CCN(C(=O)c3cc(C)on3)C(C)C2)cc1 (stereo not drawn) | -15.3% |
| COC(=O)c1ccc(N2CCN(C(=O)c3cnn(C)c3)C(C)C2)cc1 (stereo not drawn) | 16.7% |
| CC(C)c1ccc(C(C)NC(=O)N2CCC(n3cncn3)CC2)cc1 (stereo not drawn) | -13.4% |
| Cc1cnn(CCNCC(O)COc2c(C)ccc(C)c2C)c1 (stereo not drawn) | -5.42% |
| CNc1cc2c(nn1)CCN(C(=O)C1CCCc3ccccc31)C2 (stereo not drawn) | -19% |
| Cn1cc(C2CCCN2C(=O)CCCOc2ccc(F)cc2F)cn1 (stereo not drawn) | -11.3% |
| CN(CC(=O)N1CCCC1Cn1cccn1)C1CC1 (stereo not drawn) | -14.3% |
| CN1CCN(C2CCN(CC(=O)NCC(F)(F)F)CC2)C1=O | -6.61% |
| Cc1cc(C(C)NC(=O)N2CCC(n3cncn3)CC2)c(C)s1 (stereo not drawn) | -17.7% |
| CC(Cn1cccn1)NC(=O)N(C)Cc1ccc(Cl)s1 (stereo not drawn) | -16.6% |
| CCCc1noc(CN2CCCC2c2ccsc2)n1 (stereo not drawn) | -17.8% |
| CN(CC(=O)N1CCCC1Cn1cccn1)c1cnccn1 (stereo not drawn) | -19.4% |
| Clc1snnc1CN1CCCCC1Cn1cncn1 (stereo not drawn) | 11.8% |
| c1cnn(CCN2CCOC(Cn3cncn3)C2)c1 (stereo not drawn) | 6.43% |
| COc1c(C)cnc(CN2CCCCC2Cn2nc(C)nc2C)c1C (stereo not drawn) | 16.8% |
